The values below are quoted from earlier work in paper PMC9501525, “Conjugation of a Cationic Cell-Penetrating Peptide with a Novel Kunitzin-like Trypsin Inhibitor: New Insights for Enhancement of Peptide Bioactivities” (Pharmaceutics, 2022).

The test system of one data set is C. albicans (ATCC 10231). The following applies: ref [26]; cited from earlier work. The text has this:
(§1) Table 3 MIC/MBC of kunitzin-OV2 and its relatives against different microorganisms. | column: TAT ^a

The next data set has as its system E. coli (ATCC 8739). Conditions: ref [26]; cited from earlier work.
Text: as §1

Data set [1] has as its system P. aeruginosa (ATCC 9027). The following applies: ref [26]; cited from earlier work.
Text: as §1

The test system of a further data set is S. aureus (ATCC 6538). The following applies: ref [26]; cited from earlier work.
Text: as §1

For a further data set, the system named is MRSA (NCTC 12493). Conditions: ref [26]; cited from earlier work.
Text: as §1

The next data set relates to E. coli. Set-up: method as in PMID 28943153. The following applies: ref [41]; cited from earlier work.

“RKKRRQRRR [TAT, classical short cationic cell-penetrating peptide TAT48–56]”: the minimal bactericidal concentration (MBC) (with C. albicans (ATCC 10231); in the data set with E. coli (ATCC 8739); in data set [1]; in the data set on S. aureus (ATCC 6538); in the data set with MRSA (NCTC 12493)) was greater than 128 µM throughout. Moreover, the MIC (in the data set on C. albicans (ATCC 10231); with E. coli (ATCC 8739); in data set [1]; with S. aureus (ATCC 6538); in the data set on MRSA (NCTC 12493)) was greater than 128 µM throughout.
“melittin: typical AMP, literature comparator, ref”: in the data set on E. coli, the MBC is 64 to 128 µg/mL and the MIC is 40 to 42.5 µg/mL.
